Measured values from ChEMBL document CHEMBL1201862, “PubChem BioAssay data set” (2004).
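Five compound concentrations were applied to cells in 96-well plates for 48 hours; endpoints were derived by simple linear interpolation of the resulting dose-response curve. GI50 = concentration required for 50% inhibition of growth.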 Activity calls are given as the source filed them. Rule as the data show it: active = GI50 up to about 1.1 µM and inactive = higher.

Columns and labels:
Test in all cases: DTP human tumour cell line panel, 48 h
SW-620 = tested on: SW-620
OVCAR-8 = tested on: OVCAR-8
SK-MEL-5 = tested on: SK-MEL-5
SK-MEL-2 = tested on: SK-MEL-2
Hs-578T = tested on: Hs-578T
TK-10 = tested on: TK-10
OVCAR-5 = tested on: OVCAR-5
SN12C = tested on: SN12C
HCT-116 = tested on: HCT-116
UO-31 = tested on: UO-31
RPMI-8226 = tested on: RPMI-8226
A549 = tested on: A549
M14 = tested on: M14
SNB-19 = tested on: SNB-19
KM12 = tested on: KM12
MDA-MB-435 = tested on: MDA-MB-435
SK-MEL-28 = tested on: SK-MEL-28
NCI-H226 = tested on: NCI-H226
SK-OV-3 = tested on: SK-OV-3
BT-549 = tested on: BT-549

Compound: CC1C(c2ccc(F)cc2)c2cc3c(cc2OC1N1CCCC1)OCO3 (stereo not given)
- GI50 (SW-620): 47 µM (inactive)
- GI50 (OVCAR-8): 55.1 µM (inactive)
- GI50 (SK-MEL-5): 37.7 µM (inactive)
- GI50 (SK-MEL-2): 89.3 µM (inactive)
- GI50 (Hs-578T): 18 µM (inactive)
- GI50 (TK-10): 37.2 µM (inactive)
- GI50 (OVCAR-5): 47.5 µM (inactive)
- GI50 (SN12C): 80.4 µM (inactive)
- GI50 (HCT-116): 30.6 µM (inactive)
- GI50 (UO-31): 23.2 µM (inactive)
- GI50 (RPMI-8226): > 10 µM (inactive)
- GI50 (A549): 34.3 µM (inactive)
- GI50 (M14): 54.2 µM (inactive)
- GI50 (SNB-19): 29.1 µM (inactive)
- GI50 (KM12): 42.5 µM (inactive)
- GI50 (MDA-MB-435): 44.6 µM (inactive)
- GI50 (SK-MEL-28): 90.4 µM (inactive)

Compound: CC(C)=CCN(N=O)c1ncnc2[nH]cnc12
- GI50 (NCI-H226): > 100 µM (inactive)
- GI50 (SW-620): > 100 µM (inactive)
- GI50 (OVCAR-8): > 100 µM (inactive)
- GI50 (SK-MEL-5): > 100 µM (inactive)
- GI50 (Hs-578T): > 100 µM (inactive)
- GI50 (TK-10): > 100 µM (inactive)
- GI50 (OVCAR-5): > 100 µM (inactive)
- GI50 (SN12C): > 100 µM (inactive)
- GI50 (HCT-116): > 100 µM (inactive)
- GI50 (UO-31): > 100 µM (inactive)
- GI50 (RPMI-8226): 88.1 µM (inactive)
- GI50 (A549): > 100 µM (inactive)
- GI50 (M14): > 100 µM (inactive)
- GI50 (SK-OV-3): > 100 µM (inactive)
- GI50 (SNB-19): > 100 µM (inactive)
- GI50 (KM12): > 100 µM (inactive)
- GI50 (MDA-MB-435): > 100 µM (inactive)
- GI50 (SK-MEL-28): > 100 µM (inactive)

Compound: O=P1(Oc2ccccc2)NCc2ncccc2O1 (stereo not given)
- GI50 (NCI-H226): > 100 µM (inactive)
- GI50 (SW-620): > 100 µM (inactive)
- GI50 (OVCAR-8): > 100 µM (inactive)
- GI50 (SK-MEL-5): > 100 µM (inactive)
- GI50 (SK-MEL-2): > 100 µM (inactive)
- GI50 (BT-549): > 100 µM (inactive)
- GI50 (OVCAR-5): > 100 µM (inactive)
- GI50 (SN12C): > 100 µM (inactive)
- GI50 (HCT-116): > 100 µM (inactive)
- GI50 (UO-31): > 100 µM (inactive)
- GI50 (RPMI-8226): > 100 µM (inactive)
- GI50 (A549): > 100 µM (inactive)
- GI50 (M14): > 100 µM (inactive)
- GI50 (SNB-19): > 100 µM (inactive)
- GI50 (KM12): > 100 µM (inactive)
- GI50 (MDA-MB-435): > 100 µM (inactive)
- GI50 (SK-MEL-28): > 100 µM (inactive)

Compound: CC(NC1=NCCO1)c1ccccc1Cl (stereo not given)
- GI50 (NCI-H226): 58.1 µM (inactive)
- GI50 (SW-620): > 100 µM (inactive)
- GI50 (OVCAR-8): > 100 µM (inactive)
- GI50 (SK-MEL-5): > 100 µM (inactive)
- GI50 (SK-MEL-2): > 100 µM (inactive)
- GI50 (Hs-578T): > 100 µM (inactive)
- GI50 (TK-10): > 100 µM (inactive)
- GI50 (OVCAR-5): > 100 µM (inactive)
- GI50 (SN12C): > 100 µM (inactive)
- GI50 (HCT-116): 60.4 µM (inactive)
- GI50 (UO-31): > 100 µM (inactive)
- GI50 (RPMI-8226): > 100 µM (inactive)
- GI50 (A549): > 100 µM (inactive)
- GI50 (M14): > 100 µM (inactive)
- GI50 (SK-OV-3): > 100 µM (inactive)
- GI50 (SNB-19): > 100 µM (inactive)
- GI50 (KM12): > 100 µM (inactive)
- GI50 (MDA-MB-435): > 100 µM (inactive)
- GI50 (SK-MEL-28): > 100 µM (inactive)

Compound: Cc1cccc(/C=N/NC(=S)N2CCCC2)n1
- GI50 (NCI-H226): 2.41 µM (inactive)
- GI50 (SW-620): 0.188 µM (active)
- GI50 (OVCAR-8): 0.324 µM (active)
- GI50 (SK-MEL-5): 0.259 µM (active)
- GI50 (SK-MEL-2): 1.01 µM (active)
- GI50 (TK-10): 0.177 µM (active)
- GI50 (BT-549): 1.76 µM (inactive)
- GI50 (OVCAR-5): 0.132 µM (active)
- GI50 (SN12C): 0.247 µM (active)
- GI50 (HCT-116): 0.069 µM (active)
- GI50 (UO-31): 0.297 µM (active)
- GI50 (A549): 0.514 µM (active)
- GI50 (M14): 0.133 µM (active)
- GI50 (SNB-19): 2.82 µM (inactive)
- GI50 (MDA-MB-435): 0.493 µM (active)
- GI50 (SK-MEL-28): 1.02 µM (active)

Compound: Cc1cccc2c1Oc1ncccc1C2NC(=O)CN(C)C (stereo not given)
- GI50 (NCI-H226): > 10 µM (inactive)
- GI50 (SW-620): > 10 µM (inactive)
- GI50 (OVCAR-8): > 10 µM (inactive)
- GI50 (SK-MEL-2): > 10 µM (inactive)
- GI50 (TK-10): > 10 µM (inactive)
- GI50 (BT-549): > 10 µM (inactive)
- GI50 (OVCAR-5): > 10 µM (inactive)
- GI50 (SN12C): > 10 µM (inactive)
- GI50 (UO-31): > 10 µM (inactive)
- GI50 (A549): > 10 µM (inactive)
- GI50 (M14): > 10 µM (inactive)
- GI50 (SK-OV-3): > 10 µM (inactive)
- GI50 (SNB-19): > 10 µM (inactive)
- GI50 (KM12): > 10 µM (inactive)
- GI50 (MDA-MB-435): > 10 µM (inactive)

Compound: O=C(Nc1cc2c(=O)[nH]c3ccccc3c2oc1=O)c1cnccn1
- GI50 (NCI-H226): > 100 µM (inactive)
- GI50 (SW-620): > 100 µM (inactive)
- GI50 (OVCAR-8): > 100 µM (inactive)
- GI50 (SK-MEL-5): > 100 µM (inactive)
- GI50 (SK-MEL-2): > 100 µM (inactive)
- GI50 (TK-10): > 100 µM (inactive)
- GI50 (BT-549): > 100 µM (inactive)
- GI50 (OVCAR-5): > 100 µM (inactive)
- GI50 (SN12C): > 100 µM (inactive)
- GI50 (HCT-116): > 100 µM (inactive)
- GI50 (UO-31): 80.9 µM (inactive)
- GI50 (A549): > 100 µM (inactive)
- GI50 (M14): > 100 µM (inactive)
- GI50 (SK-OV-3): > 100 µM (inactive)
- GI50 (SNB-19): > 100 µM (inactive)
- GI50 (KM12): > 100 µM (inactive)
- GI50 (MDA-MB-435): > 100 µM (inactive)
- GI50 (SK-MEL-28): > 100 µM (inactive)
